From ChEMBL document CHEMBL1150909, “Magnone A and B, novel anti-PAF tetrahydrofuran lignans from the flower buds of Magnolia fargesii” (J Nat Prod, 1998)

Experiments:
Oryctolagus cuniculus [1] = organism: Oryctolagus cuniculus; test: Displacement of [3H]PAF from rabbit PAF receptor at 100 uM by liquid scintillation counting
Oryctolagus cuniculus [2] = organism: Oryctolagus cuniculus; test: Displacement of [3H]PAF from rabbit PAF receptor at 50 uM by liquid scintillation counting
Oryctolagus cuniculus [3] = organism: Oryctolagus cuniculus; test: Displacement of [3H]PAF from rabbit PAF receptor at 25 uM by liquid scintillation counting
Oryctolagus cuniculus [4] = organism: Oryctolagus cuniculus; test: Displacement of [3H]PAF from rabbit PAF receptor at 12.5 uM by liquid scintillation counting
[5] = Displacement of [3H]PAF from rabbit PAF receptor by liquid scintillation counting; set-up: species or system Oryctolagus cuniculus

Molecule `COc1ccc(C(=O)[C@H]2CO[C@H](c3ccc(OC)c(OC)c3)[C@H]2CO)cc1OC` [MAGNONE A] has an Activity (Oryctolagus cuniculus [1]) of 75.2%, an Activity (Oryctolagus cuniculus [2]) of 56.7% and an Activity (Oryctolagus cuniculus [3]) of 41.6%. The Activity (Oryctolagus cuniculus [4]) was 19.4% and the IC50 [5] was 38 µM.
`C[C@@H]1C(=O)O[C@H]2[C@H](O)[C@@]34[C@H]5C[C@@H](C(C)(C)C)[C@]36[C@@H](OC(=O)[C@@H]6O)O[C@@]4(C(=O)O5)[C@@]12O` [GINKOLIDE B] showed an IC50 [5] of 19 µM.
With `COc1ccc(C(=O)[C@H]2CO[C@H](c3cc(OC)c(OC)c(OC)c3)[C@H]2CO)cc1OC` [MAGNONE B] the Activity (Oryctolagus cuniculus [1]) was 81.7%, the Activity (Oryctolagus cuniculus [2]) was 64.3% and the Activity (Oryctolagus cuniculus [3]) was 42.9%. For the same molecule, the Activity (Oryctolagus cuniculus [4]) was 37.1% and the IC50 [5] was 27 µM.
